According to ChEMBL document CHEMBL1201862, “PubChem BioAssay data set” (2004):
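48-hour exposure; five concentrations; linearly interpolated endpoints. Here, GI50 denotes the concentration required for 50% inhibition of growth.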 Calls of active or inactive are those of the source. Cut-off read from the data, not from the text of the source: active = GI50 up to about 1.1 µM and inactive = higher.

Key:
Experiment in all cases: NCI-60 cell line screen, 48 h
COLO 205 = tested on: COLO 205
HCT-116 = tested on: HCT-116
HCT-15 = tested on: HCT-15
HOP-92 = tested on: HOP-92
IGROV-1 = tested on: IGROV-1
KM12 = tested on: KM12
M14 = tested on: M14
Malme-3M = tested on: Malme-3M
NCI-H23 = tested on: NCI-H23
NCI-H460 = tested on: NCI-H460
OVCAR-3 = tested on: OVCAR-3
RPMI-8226 = tested on: RPMI-8226
SF-268 = tested on: SF-268
SF-539 = tested on: SF-539
SK-MEL-2 = tested on: SK-MEL-2
SK-OV-3 = tested on: SK-OV-3
SNB-19 = tested on: SNB-19
SR = tested on: SR
UACC-257 = tested on: UACC-257
UO-31 = tested on: UO-31

CC(C)NC(=O)CN1CCN(C2=C(Cl)C(=O)c3c(O)ccc(O)c3C2=O)CC1
GI50 (COLO 205): 1.31 µM (inactive) | GI50 (HCT-116): 1.2 µM (inactive) | GI50 (HCT-15): 0.693 µM | GI50 (HOP-92): 2.24 µM (inactive) | GI50 (IGROV-1): 2.39 µM (inactive) | GI50 (KM12): 6.5 µM (inactive) | GI50 (M14): 1.46 µM (inactive) | GI50 (Malme-3M): 1.04 µM (active) | GI50 (NCI-H23): 1.03 µM (active) | GI50 (NCI-H460): 7.5 µM (inactive) | GI50 (OVCAR-3): 1.57 µM (inactive) | GI50 (RPMI-8226): 1.99 µM (inactive) | GI50 (SF-268): 1.82 µM (inactive) | GI50 (SF-539): 1.97 µM (inactive) | GI50 (SK-MEL-2): 1.49 µM (inactive) | GI50 (SK-OV-3): 10.1 µM (inactive) | GI50 (SNB-19): 13.6 µM (inactive) | GI50 (SR): 0.148 µM (active) | GI50 (UACC-257): 1.79 µM (inactive) | GI50 (UO-31): 1.03 µM (active)

O=C(O)/C(Cc1ccnc2ccccc12)=N\O
GI50 (COLO 205): > 100 µM (inactive) | GI50 (HCT-116): > 100 µM (inactive) | GI50 (HCT-15): > 100 µM | GI50 (HOP-92): > 100 µM (inactive) | GI50 (IGROV-1): > 100 µM (inactive) | GI50 (KM12): > 100 µM (inactive) | GI50 (M14): > 100 µM (inactive) | GI50 (Malme-3M): > 100 µM (inactive) | GI50 (NCI-H23): > 100 µM (inactive) | GI50 (NCI-H460): > 100 µM (inactive) | GI50 (OVCAR-3): > 100 µM (inactive) | GI50 (RPMI-8226): > 100 µM (inactive) | GI50 (SF-268): > 100 µM (inactive) | GI50 (SF-539): > 100 µM (inactive) | GI50 (SK-MEL-2): > 100 µM (inactive) | GI50 (SK-OV-3): > 100 µM (inactive) | GI50 (SNB-19): > 100 µM (inactive) | GI50 (SR): > 100 µM (inactive) | GI50 (UACC-257): > 100 µM (inactive) | GI50 (UO-31): > 100 µM (inactive)

OC1(c2ccccc2)CC2CCC(C1)N2CCc1ccccc1 (configuration not stated)
GI50 (COLO 205): 17.6 µM (inactive) | GI50 (HCT-116): 40.3 µM (inactive) | GI50 (HCT-15): 89.9 µM | GI50 (HOP-92): 43.8 µM (inactive) | GI50 (IGROV-1): 86.3 µM (inactive) | GI50 (KM12): 57.9 µM (inactive) | GI50 (M14): 35.6 µM (inactive) | GI50 (Malme-3M): > 100 µM (inactive) | GI50 (NCI-H23): 53.6 µM (inactive) | GI50 (NCI-H460): 58.9 µM (inactive) | GI50 (OVCAR-3): 85.5 µM (inactive) | GI50 (RPMI-8226): 30.3 µM (inactive) | GI50 (SF-268): > 100 µM (inactive) | GI50 (SF-539): 81.8 µM (inactive) | GI50 (SK-MEL-2): > 100 µM (inactive) | GI50 (SK-OV-3): > 100 µM (inactive) | GI50 (SNB-19): 93.1 µM (inactive) | GI50 (SR): > 100 µM (inactive) | GI50 (UACC-257): 24.5 µM (inactive) | GI50 (UO-31): 28.1 µM (inactive)

CN1c2ccccc2C(=O)NC12CCN(CCCC(=O)c1ccc(F)cc1)CC2
GI50 (COLO 205): 16.3 µM (inactive) | GI50 (HCT-116): 44.7 µM (inactive) | GI50 (HCT-15): > 100 µM | GI50 (HOP-92): 62.1 µM (inactive) | GI50 (IGROV-1): > 100 µM (inactive) | GI50 (KM12): > 100 µM (inactive) | GI50 (M14): 15.5 µM (inactive) | GI50 (Malme-3M): 27.7 µM (inactive) | GI50 (NCI-H23): > 100 µM (inactive) | GI50 (OVCAR-3): 48.9 µM (inactive) | GI50 (RPMI-8226): 33.1 µM (inactive) | GI50 (SF-268): 17.8 µM (inactive) | GI50 (SF-539): 50.6 µM (inactive) | GI50 (SK-MEL-2): > 100 µM (inactive) | GI50 (SK-OV-3): > 100 µM (inactive) | GI50 (SR): 32.4 µM (inactive) | GI50 (UACC-257): 29 µM (inactive) | GI50 (UO-31): 80.4 µM (inactive)

Cc1cc(C)cc(Sc2c([N+](=O)[O-])ncn2C)c1
GI50 (COLO 205): 12.4 µM (inactive) | GI50 (HCT-116): 13.8 µM (inactive) | GI50 (HOP-92): 17.2 µM (inactive) | GI50 (IGROV-1): 20.8 µM (inactive) | GI50 (KM12): 18.9 µM (inactive) | GI50 (M14): 14 µM (inactive) | GI50 (Malme-3M): 7.28 µM (inactive) | GI50 (NCI-H23): 14.8 µM (inactive) | GI50 (NCI-H460): 18.2 µM (inactive) | GI50 (OVCAR-3): 13 µM (inactive) | GI50 (RPMI-8226): 9.98 µM (inactive) | GI50 (SF-268): 14.9 µM (inactive) | GI50 (SF-539): 6.03 µM (inactive) | GI50 (SK-MEL-2): 10.6 µM (inactive) | GI50 (SK-OV-3): 23.8 µM (inactive) | GI50 (SNB-19): 25.7 µM (inactive) | GI50 (SR): 10.5 µM (inactive) | GI50 (UACC-257): 14.2 µM (inactive) | GI50 (UO-31): 13.7 µM (inactive)

CCOC(=O)Cn1c(=O)c2cc(C)cc3c(Cl)nc4c(OC)c(OC)cc1c4c32
GI50 (COLO 205): > 100 µM (inactive) | GI50 (HCT-116): > 100 µM (inactive) | GI50 (HCT-15): > 100 µM | GI50 (HOP-92): 41.5 µM (inactive) | GI50 (IGROV-1): 71.8 µM (inactive) | GI50 (KM12): > 100 µM (inactive) | GI50 (M14): > 100 µM (inactive) | GI50 (Malme-3M): 44.2 µM (inactive) | GI50 (NCI-H23): > 100 µM (inactive) | GI50 (NCI-H460): > 100 µM (inactive) | GI50 (OVCAR-3): > 100 µM (inactive) | GI50 (RPMI-8226): 36.5 µM (inactive) | GI50 (SF-268): 35.6 µM (inactive) | GI50 (SF-539): > 100 µM (inactive) | GI50 (SK-MEL-2): > 100 µM (inactive) | GI50 (SK-OV-3): > 100 µM (inactive) | GI50 (SNB-19): > 100 µM (inactive) | GI50 (SR): 50 µM (inactive) | GI50 (UACC-257): > 100 µM (inactive) | GI50 (UO-31): > 100 µM (inactive)

CC(=O)OC(C)(C)/C=C/C(=O)[C@](C)(O)[C@H]1[C@H](O)C[C@@]2(C)[C@@H]3CC=C4[C@@H](C[C@H](O)C(=O)C4(C)C)[C@]3(CO)C(=O)C[C@]12C [CUCURBITACIN A]
GI50 (COLO 205): 0.318 µM (active) | GI50 (HCT-116): 0.437 µM (active) | GI50 (HCT-15): 0.468 µM | GI50 (HOP-92): 0.237 µM (active) | GI50 (IGROV-1): 0.634 µM (active) | GI50 (KM12): 1.1 µM (active) | GI50 (M14): 0.39 µM (active) | GI50 (Malme-3M): 0.344 µM (active) | GI50 (NCI-H23): 0.536 µM (active) | GI50 (NCI-H460): 0.184 µM (active) | GI50 (OVCAR-3): 0.446 µM (active) | GI50 (RPMI-8226): 0.0942 µM (active) | GI50 (SF-268): 0.168 µM (active) | GI50 (SF-539): 0.285 µM (active) | GI50 (SK-MEL-2): 0.1 µM (active) | GI50 (SK-OV-3): 0.391 µM (active) | GI50 (SNB-19): 0.249 µM (active) | GI50 (SR): 0.65 µM (active) | GI50 (UACC-257): 0.364 µM (active) | GI50 (UO-31): 0.317 µM (active)
